Measured values reported in ChEMBL document CHEMBL1150604, “Convolutindole A and convolutamine H, new nematocidal brominated alkaloids from the marine bryozoan Amathia convoluta” (2002).
Activity calls are given as the source filed them. The calls are words filed in the database; no cut-off is given here.

Legend:
Saccharomyces cerevisiae [1] = experiment: Antifungal activity against Saccharomyces cerevisiae ATCC 9763 at 200 ug/ml after 24 hrs by agar-based microtiter plate assay; type: functional, organism-based
Bacillus subtilis [2] = experiment: Antibacterial activity against Bacillus subtilis ATCC 6633 at 100 ug/ml after 24 hrs by agar-based microtiter plate assay; type: functional, organism-based
Heteropogon contortus = experiment: Nematocidal activity against […] McMaster assessed as inhibition of nematode larval development after 5 days; type: functional
Bacillus subtilis [3] = experiment: Antibacterial activity against Bacillus subtilis ATCC 6633 after 24 hrs by agar-based microtiter plate assay; type: functional
Bacillus subtilis [4] = details: ATCC 6633, 50 ug/ml
Description: Antibacterial activity against Bacillus subtilis ATCC 6633 at 50 ug/ml after 24 hrs by agar-based microtiter plate assay

Saccharomyces cerevisiae [5] = details: ATCC 9763, 50 ug/ml
Description: Antifungal activity against Saccharomyces cerevisiae ATCC 9763 at 50 ug/ml after 24 hrs by agar-based microtiter plate assay

Row | Compound | LD99 (Saccharomyces cerevisiae [1]) | LD99 (Bacillus subtilis [2]) | LD99 (Heteropogon contortus) [µg/mL] | LD99 (Bacillus subtilis [3]) [µg/mL] | LD99 (Bacillus subtilis [4]) | LD99 (Saccharomyces cerevisiae [5])
1 | CNCCc1c(Br)c(Br)c(Br)c(OC)c1OC [CONVOLUTAMINE H] | inactive | inactive | 0.2 |  |  | 
2 | COc1c(Br)cc(Br)c2c(CCN(C)C)c(Br)n(OC)c12 [CONVOLUTINDOLE A] | inactive |  | 0.39 | 50 |  | 
3 | c1ccc([C@H]2CN3CCSC3=N2)cc1 [LEVAMISOLE] |  |  | 1.6 |  | inactive | inactive
